Assay results reported in publication PMC8073230, “Development and Verification of a Precolumn Derivatization LC-MS/MS Method for the Pharmacokinetic Study of Houttuynine of Houttuynia Essential Oil” (Molecules, 2021).

Test: Pharmacokinetic study of Hou in rats after single administration of HEO (LC-MS/MS, non-compartmental model)
Type: in vivo, rat
Conditions: for AUC(0–t) / AUC(0–∞) / C max / T 1/2 / T max / V z: Hou in rat plasma after single administration of HEO; for AUC(0–t) / AUC(0–∞) / C max / T 1/2 / T max / V z / MRT(0–t): n = 6; for MRT(0–t): Hou in rat plasma after HEO
Procedure: The pharmacokinetics of HEO administrated to rat via gavage and injection were evaluated based on the determination of Hou blood concentration by the established LC-MS/MS approach. Furthermore, the parameters of the pharmacokinetics were calculated by a non-compartmental model using the Drug and Statistics Software (DAS), version 3.2.8.
Twelve male SD rats (200 ± 30 g) were kept in an appropriate environment for three days before the start of the experiment. Before drug administration, the rats were fasted except for free water access for 12 h. All animals were randomly divided into two groups with six animals in each group. Blood samples (0.2 mL) were withdrawn at specific time intervals (0 h, 5 min, 10 min, 15 min, 30 min, 1 h, 2 h, 3 h, 4 h, 6 h, 8 h, 12 h, and 24 h) after administration in heparinized tubes. The samples were immediately centrifuged at 3000 rpm, and kept at −20 °C in a refrigerator.
Plasma samples (100 μL) were mixed with 100 μL of DNPH (2 mg/mL), 50 μL of IS (PTD, 200 µg/mL), and 150 μL acetonitrile (containing 2% HCl) with uniform mixing, followed by vigorous vortexing for 3 min to precipitate the protein. Then, all samples were shaken in a water bath oscillator for 15 min at 45 °C. The solutions were then centrifuged. The centrifugation step was repeated once, and plasma samples of Hou were obtained and subjected to LC-MS/MS analysis.
Pharmacokinetic parameters including AUC (0–t), AUC (0–∞), MRT (0–t), MRT (0–∞), CLz and so on, were calculated using the DAS (version 3.2.8, Chinese Pharmacological Association, Beijing, China). The Cmax was obtained from the concentration–time curve. The area under the plasma concentration–time curve from zero to the time of the last measurable sample AUC (0–t)), area under the plasma concentration–time curve from zero to infinity AUC (0−∞), mean residence time from zero to the time of the last measurable sample (MRT0−t), mean residence time from zero to the time of infinity (MRT0−∞), and CLz were calculated using the DAS.

Substance: 3-oxo-dodecanal [Hou]
- F (absolute bioavailability) (Hou after HEO, gavage (oral administration)): 7.08%
- F (Hou after HEO, injection (reference route)): 100%
- AUC(0–t) (gavage): 2451.79 ± 300.01 µg·h/L
- AUC(0–∞) (gavage): 2451.837 ± 432.74 µg·h/L
- C max (gavage): 222.48 ± 20.38 ng/mL
- T 1/2 (gavage): 6.45 ± 0.94 h
- T max (gavage): 3.71 ± 1.07 h
- V z (gavage): 85.81 ± 5.74 L/kg
- AUC(0–t) (injection): 32,693.2 ± 1320 μg/L × h
- AUC(0–∞) (injection): 34,630.466 ± 1436 μg/L × h
- C max (injection): 2010 ± 350 ng/mL
- T 1/2 (injection): 5.987 ± 0.52 h
- T max (injection): 0.033 ± 0.012 h
- V z (injection): 5.611 ± 0.97 L/kg
- maximum plasma concentration (Cmax) (Hou in rats after HEO, oral administration): 222.48 ng/mL
- MRT(0–t) (first MRT line (r8), gavage): 8.914 ± 2.73 h
- MRT(0–t) (first MRT line (r8), injection): 7.575 ± 1.21 h
- MRT(0–t) (second MRT line (r9), gavage): 11.594 ± 1.85 h
- MRT(0–t) (second MRT line (r9), injection): 9.153 ± 0.98 h
